According to patent publication US20250154686A1, “COMPOUND LIBRARY” (CHUGAI SEIYAKU KABUSHIKI KAISHA, priority 2021, published 2025):
pKd: −log10 of the molar value.

Key:
Human Bcl-2 protein = molecular target: T1, Human Bcl-2 protein (Homo sapiens, UniProt P10415); assay: Evaluation of binding of compound to Bcl-2 by surface plasmon resonance (SPR)-2, Example 13; details: for pKd: Biacore T200, biotinylated Bcl-2 immobilized on Sensor Chip SA, 15° C., read-out: Equilibrium dissociation constant KD; for equilibrium dissociation constant KD compared with B2Q045-01 (KD=1.20 μM) or B2Q048-01 (KD=0.480 μM): Biacore T200, 15° C.
T1 construct: purchased Novus Biologicals
Procedure: A surface plasmon resonance method was used in order to analyze the binding affinity of the compounds synthesized in Example 12 for Bcl-2, which are shown in Table 13-1. The apparatus used was Biacore T200 (GE Healthcare Japan Corp.), and the running buffer used was HBS (10 mM HEPES-NaOH and 150 mM NaCl, pH 7.4) supplemented with 1 mM DTT, 3 mM EDTA, 0.01% Tween 20 and 4% DMSO. Human Bcl-2 protein (Novus Biologicals) was biotinylated using EZ-Link NHS-PEG4-Biotin (Thermo Fisher scientific Inc.) and immobilized on the surface of Sensor Chip SA (Cytiva). Then, compound solutions having a plurality of concentrations and the running buffer (blank) were added to the Bcl-2-immobilized surface to obtain the binding response of the compounds. Measurement was performed at 15° C.
The obtained sensorgrams were treated with Biacore T200 Evaluation Software, and the equilibrium dissociation constant KD of each compound for Bcl-2 was determined as shown in the following Table 13-2.

[1] = molecular target: T2, Bcl-2 protein (Recombinant Human Bcl-2 Protein) (Homo sapiens, UniProt P10415); assay: AS-MS evaluation of binding of the mixture libraries of Examples 8 and 9 to Bcl-2, ASMS ratio (%), Example 11; details: ASMS ratio, mixtures obtained from Example 9, 10 uM Bcl-2 protein; for AS-MS(%) N1: replicate N1; for AS-MS(%) N2: replicate N2; for AS-MS(%) N3: replicate N3 (additional day); for AS-MS(%) N4: replicate N4 (additional day)
T2 construct: purchased Novus Biologicals NBP2-34889
Procedure: DMSO solutions (prepared into approximately 5 mM based on calculation from the average molecular weight of each mixture) of the mixtures of each Example shown in Table 11-1-1 were respectively dispensed to 8 wells of MICROPLATE, 96-WELL, PP, V-BOTTOM (Greiner Bio-One International GmbH, 651201). 400 nL each from the 8 wells of the mixtures obtained from Example 8 was dispensed into 3 designated wells while 200 nL each from the 8 wells of the mixtures obtained from Example 9 was dispensed into 3 designated wells, using LABCYTE ECHO® 555 acoustic dispensing system (Beckman Coulter, Inc.). 200 nL each of two types of 10 μM positive controls (B2Q045-01 and B2Q048-01) was dispensed to the mixtures obtained from Example 8. Likewise, 100 nL each of two types of 20 μM positive controls and 400 nL of a DMSO solution by backfill was dispensed to the mixtures obtained from Example 9. Further, Bcl-2 protein (Novus Biologicals, NBP2-34889, Recombinant Human Bcl-2 Protein, Lot E60145051) (19.2 μL) prepared at 5 µM (final protein concentration) for the mixtures obtained from Example 8 and 10 µM (final protein concentration) for the mixtures obtained from Example 9, in advance using a Tris-HCl buffer (25 mM Tris-HCl, pH 7.4, 150 mM NaCl, 0.025% Tween-20, and 1 mM DTT) was added to the well containing the dispensed 1000 compounds or 500 compounds (final compound concentration: 100 nM), and the plate was incubated at 23° C. for 1 hour in the dark. Subsequently, 200 μL of an assay buffer (25 mM Tris-HCl, pH 7.4, 150 mM NaCl, 0.025% Tween-20, and 1 mM DTT) was centrifuged three times at 2000×G at 4° C. for 2 minutes using 96-well MacroSpin column, P-2 Material (Harvard Bioscience, Inc., 74-5655) that had been allowed to swell to condition the 96-well MacroSpin column. Subsequently, 20 μL of the sample thus incubated was added to the 96-well MacroSpin column, P-2 Material after the completion of conditioning, and SEC treatment was performed by centrifugation at 2000×G for 2 minutes. 32 μL of a 1:1 mixed solution of acetonitrile and methanol (LC/MS grade, FUJIFILM Wako Pure Chemical Corp.) was added to a flow-through liquid from SEC, and the mixture was centrifuged at 1800×G at 4° C. for 5 minutes. The supernatant was used as analysis sample ASMS (A). By a similar operation, a sample prepared at 500 compounds/well or 1000 compounds/well and supplemented with only a Tris-HCl buffer containing no Bcl-2 protein was incubated under the same conditions as above, and the same organic solvent as above was added thereto without 96-well MacroSpin column treatment. A supernatant obtained by a centrifugation operation was used as STD (B). Next, by a similar operation, a sample prepared at 1000 compounds/well or 500 compounds/well and supplemented with only a Tris-HCl buffer containing no Bcl-2 protein was incubated under the same conditions as above and treated with 96-well MacroSpin column in the same manner as above, and the same organic solvent as above was added thereto. A supernatant obtained by a centrifugation operation was used as BK (C). These samples were measured by reverse-phase LC/MS.
Then, the samples A, B and C were analyzed for the 1000 compounds or 500 compounds using TraceFinder 5.1 (Thermo Fisher Scientific Inc.) and CHANCE Software (in-house), and an ASMS ratio (%) was calculated according to the following expression.
The mixtures obtained from Example 8 were tested at the number of data of 2 (N1 and N2) in order to ensure reproducibility. The mixtures obtained from Example 9 were tested at the total number of data 4 (N1,N2, N3, and N4) involving the number of data of 2/day (N1 and N2) and data obtained on additional days.

T1 sequence (P10415 whole entry): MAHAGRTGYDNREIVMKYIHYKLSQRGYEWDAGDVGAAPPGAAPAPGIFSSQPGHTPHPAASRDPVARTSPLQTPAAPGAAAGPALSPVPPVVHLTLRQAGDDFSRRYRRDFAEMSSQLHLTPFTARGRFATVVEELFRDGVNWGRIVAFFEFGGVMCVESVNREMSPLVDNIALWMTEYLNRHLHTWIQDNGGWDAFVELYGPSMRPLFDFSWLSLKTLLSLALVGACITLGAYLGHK
T2 sequence (P10415 whole entry): as above

SMILES | pKd (Human Bcl-2 protein) | AS-MS(%) N1 [1] [%] | AS-MS(%) N2 [1] [%] | AS-MS(%) N3 [1] [%] | AS-MS(%) N4 [1] [%] | equilibrium dissociation constant KD compared with B2Q045-01 (KD=1.20 μM) or B2Q048-01 (KD=0.480 μM) (Human Bcl-2 protein)
CCOc1cc(C(C)C(=O)Nc2ccc(C)cc2)cc(N2CCN(c3ccc(C(=O)NS(=O)(=O)c4ccc(N[C@H](CCN5CCOCC5)CSc5ccccc5)c([N+](=O)[O-])c4)cc3)CC2)c1 (stereo partly drawn) [2-2-d1E04-2-0446] | 5.88 | 62.1 | 45.0 | 44.0 | 46.2 | 
CC(C(=O)Nc1ccc(F)cc1)c1cc(O)cc(N2CCN(c3ccc(C(=O)NS(=O)(=O)c4ccc(NCCSc5ccccc5)c([N+](=O)[O-])c4)cc3)CC2)c1 (stereo not drawn) [2-2-d1E03-1-0454] | 4.82 | 34.7 | 33.4 | 39.2 | 38.2 | 
CC(C(=O)Nc1ccc(C(F)(F)F)cc1)c1cc(O)cc(N2CCN(c3ccc(C(=O)NS(=O)(=O)c4ccc(N[C@H](CCN5CCOCC5)CSc5ccccc5)c([N+](=O)[O-])c4)cc3)CC2)c1 (stereo partly drawn) [2-2-d1E04-1-0498] | 5.60 | 45.5 | 61.4 | 52.7 | 51.0 | 
CC(C(=O)Nc1nc2ccccc2s1)c1cc(O)cc(N2CCN(c3ccc(C(=O)NS(=O)(=O)c4ccc(NCCSc5ccccc5)c([N+](=O)[O-])c4)cc3)CC2)c1 (stereo not drawn) [2-2-d1E03-1-0495] | 5.27 | 28.9 | 38.1 | 35.6 | 39.3 | 
CC(C(=O)Nc1ccccc1)c1cc(O)cc(N2CCN(c3ccc(C(=O)NS(=O)(=O)c4ccc(N[C@H](CCN5CCOCC5)CSc5ccccc5)c([N+](=O)[O-])c4)cc3)CC2)c1 (stereo partly drawn) [2-2-d1E04-1-0417] | 6.24 | 70.3 | 77.8 | 72.8 | 71.8 | smaller equilibrium dissociation constant KD
CCOc1cc(C(C)C(=O)Nc2ccc(F)cc2)cc(N2CCN(c3ccc(C(=O)NS(=O)(=O)c4ccc(N[C@H](CCN5CCOCC5)CSc5ccccc5)c([N+](=O)[O-])c4)cc3)CC2)c1 (stereo partly drawn) [2-2-d1E04-2-0454] | 5.97 | 36.4 | 42.2 | 58.2 | 62.7 | smaller equilibrium dissociation constant KD

More lines, in order of rising pKd (Human Bcl-2 protein), values ahead:

pKd (Human Bcl-2 protein) | AS-MS(%) N1 [1] [%] | AS-MS(%) N2 [1] [%] | AS-MS(%) N3 [1] [%] | AS-MS(%) N4 [1] [%] | SMILES | equilibrium dissociation constant KD compared with B2Q045-01 (KD=1.20 μM) or B2Q048-01 (KD=0.480 μM) (Human Bcl-2 protein)
5.10 | 34.2 | 33.3 | 44.4 | 38.0 | CC(C(=O)Nc1ccccc1)c1cc(O)cc(N2CCN(c3ccc(C(=O)NS(=O)(=O)c4ccc(NCCSc5ccccc5)c([N+](=O)[O-])c4)cc3)CC2)c1 (stereo not drawn) [2-2-d1E03-1-0417] | 
5.61 | 53.4 | 45.9 | 33.3 | 36.8 | CCOc1cc(N2CCN(c3ccc(C(=O)NS(=O)(=O)c4ccc(N[C@H](CCN5CCOCC5)CSc5ccccc5)c([N+](=O)[O-])c4)cc3)CC2)cc2c1CCCC2C(=O)Nc1ccccc1 (stereo partly drawn) [2-2-d1E04-2-0466] | 
6.07 | 43.8 | 48.8 | 53.8 | 65.5 | CCOc1cc(C(C)C(=O)Nc2ccccc2)cc(N2CCN(c3ccc(C(=O)NS(=O)(=O)c4ccc(N[C@H](CCN5CCOCC5)CSc5ccccc5)c([N+](=O)[O-])c4)cc3)CC2)c1 (stereo partly drawn) [2-2-d1E04-2-0417] | smaller equilibrium dissociation constant KD
6.10 | 72.6 | 87.8 | 78.5 | 74.6 | CC(C(=O)Nc1ccc(F)cc1)c1cc(O)cc(N2CCN(c3ccc(C(=O)NS(=O)(=O)c4ccc(N[C@H](CCN5CCOCC5)CSc5ccccc5)c([N+](=O)[O-])c4)cc3)CC2)c1 (stereo partly drawn) [2-2-d1E04-1-0454] | smaller equilibrium dissociation constant KD
6.11 | 57.8 | 68.3 | 60.9 | 58.1 | Cc1ccc(NC(=O)C(C)c2cc(O)cc(N3CCN(c4ccc(C(=O)NS(=O)(=O)c5ccc(N[C@H](CCN6CCOCC6)CSc6ccccc6)c([N+](=O)[O-])c5)cc4)CC3)c2)cc1 (stereo partly drawn) [2-2-d1E04-1-0446] | smaller equilibrium dissociation constant KD
6.15 | 52.7 | 137.5 | 56.0 | 50.3 | CCOc1cc(C(C)C(=O)Nc2nc3ccccc3s2)cc(N2CCN(c3ccc(C(=O)NS(=O)(=O)c4ccc(N[C@H](CCN5CCOCC5)CSc5ccccc5)c([N+](=O)[O-])c4)cc3)CC2)c1 (stereo partly drawn) [2-2-d1E04-2-0495] | smaller equilibrium dissociation constant KD
6.79 | 59.4 | 93.2 | 85.8 | 69.0 | CC(C(=O)Nc1nc2ccccc2s1)c1cc(O)cc(N2CCN(c3ccc(C(=O)NS(=O)(=O)c4ccc(N[C@H](CCN5CCOCC5)CSc5ccccc5)c([N+](=O)[O-])c4)cc3)CC2)c1 (stereo partly drawn) [2-2-d1E04-1-0495] | smaller equilibrium dissociation constant KD
